Laboratory results as given in PubChem BioAssay (NCI).
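Dose response: 5 concentrations. Exposure: 48 h. Format: 96-well plates. Endpoint: linear interpolation; highest concentration if not reached. GI50 marks 50% less growth. Definition used: TGI = concentration required for complete inhibition of growth.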

What was measured:
Assay in all cases: growth of human tumour cells (NCI), 48 h
786-0 renal = tested on: 786-0 renal
A498 renal = tested on: A498 renal
A549 NSCLC = tested on: A549 NSCLC
ACHN renal = tested on: ACHN renal
CAKI-1 renal = tested on: CAKI-1 renal
CCRF-CEM leukemia = tested on: CCRF-CEM leukemia
COLO 205 colon = tested on: COLO 205 colon
DLD-1 colon = tested on: DLD-1 colon
DMS 273 small cell lung = tested on: DMS 273 small cell lung
EKVX NSCLC = tested on: EKVX NSCLC
HCT-15 colon = tested on: HCT-15 colon
HL-60(TB) leukemia = tested on: HL-60(TB) leukemia
HOP-18 NSCLC = tested on: HOP-18 NSCLC
HOP-92 NSCLC = tested on: HOP-92 NSCLC
HT29 colon = tested on: HT29 colon
IGROV1 ovarian = tested on: IGROV1 ovarian
K-562 leukemia = tested on: K-562 leukemia
KM12 colon = tested on: KM12 colon
KM20L2 colon = tested on: KM20L2 colon
LOX IMVI melanoma = tested on: LOX IMVI melanoma
LXFL 529 NSCLC = tested on: LXFL 529 NSCLC
M14 melanoma = tested on: M14 melanoma
M19-MEL melanoma = tested on: M19-MEL melanoma
MALME-3M melanoma = tested on: MALME-3M melanoma
MOLT-4 leukemia = tested on: MOLT-4 leukemia
NCI-H23 lung = tested on: NCI-H23 lung
NCI-H460 lung = tested on: NCI-H460 lung
NCI-H522 lung = tested on: NCI-H522 lung
OVCAR-3 ovarian = tested on: OVCAR-3 ovarian
OVCAR-4 ovarian = tested on: OVCAR-4 ovarian
OVCAR-5 ovarian = tested on: OVCAR-5 ovarian
OVCAR-8 ovarian = tested on: OVCAR-8 ovarian
RPMI-8226 leukemia = tested on: RPMI-8226 leukemia
RXF 393 renal = tested on: RXF 393 renal
SF-268 CNS = tested on: SF-268 CNS
SF-295 CNS = tested on: SF-295 CNS
SF-539 CNS = tested on: SF-539 CNS
SK-MEL-2 melanoma = tested on: SK-MEL-2 melanoma
SK-MEL-28 melanoma = tested on: SK-MEL-28 melanoma
SK-MEL-5 melanoma = tested on: SK-MEL-5 melanoma
SK-OV-3 ovarian = tested on: SK-OV-3 ovarian
SN12C renal = tested on: SN12C renal
SNB-19 CNS = tested on: SNB-19 CNS
SNB-75 CNS = tested on: SNB-75 CNS
SW-620 colon = tested on: SW-620 colon
TK-10 renal = tested on: TK-10 renal
U251 CNS = tested on: U251 CNS
UACC-257 melanoma = tested on: UACC-257 melanoma
UACC-62 melanoma = tested on: UACC-62 melanoma
UO-31 renal = tested on: UO-31 renal
XF 498 CNS = tested on: XF 498 CNS
HCC-2998 colon = tested on: HCC-2998 colon
HOP-62 NSCLC = tested on: HOP-62 NSCLC

With CC(NS(=O)(=O)c1ccc(Cl)cc1)C(=O)O (stereo not given) the TGI (786-0 renal) was over 100 µM, the TGI (A498 renal) was over 100 µM and the TGI (A549 NSCLC) was over 100 µM. It also gave a TGI (ACHN renal) of over 100 µM, a TGI (CAKI-1 renal) of over 100 µM and a TGI (CCRF-CEM leukemia) of over 100 µM. For the same compound, the TGI (COLO 205 colon) was over 100 µM, the TGI (DLD-1 colon) was over 100 µM and the TGI (DMS 273 small cell lung) was over 100 µM. It also gave a TGI (EKVX NSCLC) of over 100 µM, a TGI (HCT-15 colon) of over 100 µM and a TGI (HL-60(TB) leukemia) of over 100 µM. For the same compound, the TGI (HOP-18 NSCLC) was over 100 µM, the TGI (HOP-92 NSCLC) was over 100 µM and the TGI (HT29 colon) was over 100 µM. It also gave a TGI (IGROV1 ovarian) of over 100 µM, a TGI (K-562 leukemia) of over 100 µM and a TGI (KM12 colon) of over 100 µM. It also gave a TGI (KM20L2 colon) of over 100 µM, a TGI (LOX IMVI melanoma) of over 100 µM and a TGI (LXFL 529 NSCLC) of over 100 µM. The TGI (M14 melanoma) was over 100 µM, the TGI (M19-MEL melanoma) was over 100 µM and the TGI (MALME-3M melanoma) was over 100 µM. The TGI (MOLT-4 leukemia) was over 100 µM, the TGI (NCI-H23 lung) was over 100 µM and the TGI (NCI-H460 lung) was over 100 µM. The TGI (NCI-H522 lung) was over 100 µM, the TGI (OVCAR-3 ovarian) was over 100 µM and the TGI (OVCAR-4 ovarian) was over 100 µM. It also gave a TGI (OVCAR-5 ovarian) of over 100 µM, a TGI (OVCAR-8 ovarian) of over 100 µM and a TGI (RPMI-8226 leukemia) of over 100 µM. It also gave a TGI (RXF 393 renal) of over 100 µM, a TGI (SF-268 CNS) of over 100 µM and a TGI (SF-295 CNS) of over 100 µM. For the same compound, the TGI (SF-539 CNS) was over 100 µM, the TGI (SK-MEL-2 melanoma) was over 100 µM and the TGI (SK-MEL-28 melanoma) was over 100 µM. It also gave a TGI (SK-MEL-5 melanoma) of over 100 µM, a TGI (SK-OV-3 ovarian) of over 100 µM and a TGI (SN12C renal) of over 100 µM. It also gave a TGI (SNB-19 CNS) of over 100 µM, a TGI (SNB-75 CNS) of over 100 µM and a TGI (SW-620 colon) of over 100 µM. It also gave a TGI (TK-10 renal) of over 100 µM, a TGI (U251 CNS) of over 100 µM and a TGI (UACC-257 melanoma) of over 100 µM. For the same compound, the TGI (UACC-62 melanoma) was over 100 µM, the TGI (UO-31 renal) was over 100 µM and the TGI (XF 498 CNS) was over 100 µM.
Work on NC1CCCCC1N.O=NN1CCCCCC1(P(=O)([O-])[O-])P(=O)([O-])[O-].[Na+].[Pt+2] yielded a GI50 (786-0 renal) of over 100 µM, a TGI (786-0 renal) of over 100 µM and a GI50 (A498 renal) of over 100 µM. For the same compound, the TGI (A498 renal) was over 100 µM, the GI50 (A549 NSCLC) was over 100 µM and the TGI (A549 NSCLC) was over 100 µM. The GI50 (ACHN renal) was over 100 µM, the TGI (ACHN renal) was over 100 µM and the GI50 (CAKI-1 renal) was over 100 µM. The TGI (CAKI-1 renal) was over 100 µM, the GI50 (CCRF-CEM leukemia) was over 100 µM and the TGI (CCRF-CEM leukemia) was over 100 µM. For the same compound, the GI50 (COLO 205 colon) was over 100 µM, the TGI (COLO 205 colon) was over 100 µM and the GI50 (DLD-1 colon) was over 100 µM. The TGI (DLD-1 colon) was over 100 µM, the GI50 (DMS 273 small cell lung) was over 100 µM and the TGI (DMS 273 small cell lung) was over 100 µM. For the same compound, the GI50 (EKVX NSCLC) was over 100 µM, the TGI (EKVX NSCLC) was over 100 µM and the GI50 (HCC-2998 colon) was over 100 µM. For the same compound, the TGI (HCC-2998 colon) was over 100 µM, the GI50 (HCT-15 colon) was over 100 µM and the TGI (HCT-15 colon) was over 100 µM. The GI50 (HL-60(TB) leukemia) was over 100 µM, the TGI (HL-60(TB) leukemia) was over 100 µM and the GI50 (HOP-18 NSCLC) was over 100 µM. The TGI (HOP-18 NSCLC) was over 100 µM, the GI50 (HOP-62 NSCLC) was over 100 µM and the TGI (HOP-62 NSCLC) was over 100 µM. The GI50 (HOP-92 NSCLC) was over 100 µM, the TGI (HOP-92 NSCLC) was over 100 µM and the GI50 (HT29 colon) was over 100 µM. It also gave a TGI (HT29 colon) of over 100 µM, a GI50 (IGROV1 ovarian) of over 100 µM and a TGI (IGROV1 ovarian) of over 100 µM. For the same compound, the GI50 (K-562 leukemia) was over 100 µM, the TGI (K-562 leukemia) was over 100 µM and the GI50 (KM12 colon) was over 100 µM. It also gave a TGI (KM12 colon) of over 100 µM, a GI50 (KM20L2 colon) of over 100 µM and a TGI (KM20L2 colon) of over 100 µM. For the same compound, the GI50 (LOX IMVI melanoma) was over 100 µM, the TGI (LOX IMVI melanoma) was over 100 µM and the GI50 (LXFL 529 NSCLC) was over 100 µM. For the same compound, the TGI (LXFL 529 NSCLC) was over 100 µM, the GI50 (M14 melanoma) was over 100 µM and the TGI (M14 melanoma) was over 100 µM. It also gave a GI50 (MALME-3M melanoma) of over 100 µM, a TGI (MALME-3M melanoma) of over 100 µM and a GI50 (MOLT-4 leukemia) of over 100 µM. It also gave a TGI (MOLT-4 leukemia) of over 100 µM, a GI50 (NCI-H23 lung) of over 100 µM and a TGI (NCI-H23 lung) of over 100 µM. For the same compound, the GI50 (NCI-H460 lung) was over 100 µM, the TGI (NCI-H460 lung) was over 100 µM and the GI50 (NCI-H522 lung) was over 100 µM. For the same compound, the TGI (NCI-H522 lung) was over 100 µM, the GI50 (OVCAR-3 ovarian) was over 100 µM and the TGI (OVCAR-3 ovarian) was over 100 µM. It also gave a GI50 (OVCAR-4 ovarian) of over 100 µM, a TGI (OVCAR-4 ovarian) of over 100 µM and a GI50 (OVCAR-5 ovarian) of over 100 µM. It also gave a TGI (OVCAR-5 ovarian) of over 100 µM, a GI50 (OVCAR-8 ovarian) of over 100 µM and a TGI (OVCAR-8 ovarian) of over 100 µM. The GI50 (RPMI-8226 leukemia) was over 100 µM, the TGI (RPMI-8226 leukemia) was over 100 µM and the GI50 (RXF 393 renal) was over 100 µM. It also gave a TGI (RXF 393 renal) of over 100 µM, a GI50 (SF-268 CNS) of over 100 µM and a TGI (SF-268 CNS) of over 100 µM. It also gave a GI50 (SF-295 CNS) of over 100 µM, a TGI (SF-295 CNS) of over 100 µM and a GI50 (SF-539 CNS) of over 100 µM. For the same compound, the TGI (SF-539 CNS) was over 100 µM, the GI50 (SK-MEL-2 melanoma) was over 100 µM and the TGI (SK-MEL-2 melanoma) was over 100 µM. It also gave a GI50 (SK-MEL-28 melanoma) of over 100 µM, a TGI (SK-MEL-28 melanoma) of over 100 µM and a GI50 (SK-MEL-5 melanoma) of over 100 µM. The TGI (SK-MEL-5 melanoma) was over 100 µM, the GI50 (SK-OV-3 ovarian) was over 100 µM and the TGI (SK-OV-3 ovarian) was over 100 µM. It also gave a GI50 (SN12C renal) of over 100 µM, a TGI (SN12C renal) of over 100 µM and a GI50 (SNB-19 CNS) of over 100 µM. The TGI (SNB-19 CNS) was over 100 µM, the GI50 (SNB-75 CNS) was 96.9 µM and the TGI (SNB-75 CNS) was over 100 µM. The GI50 (SW-620 colon) was over 100 µM, the TGI (SW-620 colon) was over 100 µM and the GI50 (TK-10 renal) was over 100 µM. It also gave a TGI (TK-10 renal) of over 100 µM, a GI50 (U251 CNS) of over 100 µM and a TGI (U251 CNS) of over 100 µM. For the same compound, the GI50 (UACC-257 melanoma) was over 100 µM, the TGI (UACC-257 melanoma) was over 100 µM and the GI50 (UACC-62 melanoma) was over 100 µM. It also gave a TGI (UACC-62 melanoma) of over 100 µM, a GI50 (UO-31 renal) of over 100 µM and a TGI (UO-31 renal) of over 100 µM. The GI50 (XF 498 CNS) was over 100 µM and the TGI (XF 498 CNS) was over 100 µM.
